Reference: PMC3432483 (Blood Cancer Journal, 2012)

How the values were obtained:
[1] = tested on: RPS6K; assay: 320-kinase panel screen, radiometric protein kinase assay, RPS6K; assay type: biochemical; conditions: 1 μM
[2] = tested on: MV4-11 cells; assay: FMCA cytotoxicity, MV4-11 cell line; assay type: cell-based, human
[3] = tested on: primary AML cells; assay: FMCA cytotoxicity, primary AML patient cells; assay type: cell-based, human
[4] = target: CDC-like kinase 1 (CLK1) (Homo sapiens, UniProt P49759); assay: Full dose-response kinase assay; assay type: biochemical
Chain of CDC-like kinase 1 (CLK1) (P49759 whole entry): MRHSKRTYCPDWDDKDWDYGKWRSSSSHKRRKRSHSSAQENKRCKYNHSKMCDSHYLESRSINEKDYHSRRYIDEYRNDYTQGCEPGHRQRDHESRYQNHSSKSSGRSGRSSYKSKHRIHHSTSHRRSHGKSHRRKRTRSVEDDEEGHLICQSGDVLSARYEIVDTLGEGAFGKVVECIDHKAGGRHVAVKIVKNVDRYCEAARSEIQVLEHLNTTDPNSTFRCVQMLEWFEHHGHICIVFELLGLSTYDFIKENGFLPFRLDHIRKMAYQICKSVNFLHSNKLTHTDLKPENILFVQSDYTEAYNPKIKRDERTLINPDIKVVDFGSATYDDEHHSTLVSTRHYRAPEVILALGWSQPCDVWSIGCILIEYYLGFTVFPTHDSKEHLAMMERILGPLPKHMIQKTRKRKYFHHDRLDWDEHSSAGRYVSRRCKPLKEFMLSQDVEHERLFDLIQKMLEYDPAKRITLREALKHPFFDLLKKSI

[5] = target: RPS6KA; assay: Full dose-response kinase assay; assay type: biochemical
[6] = target: VEGFR2 (Homo sapiens, UniProt P35968); assay: Full dose-response kinase assay; assay type: biochemical
Chain of VEGFR2 (P35968 20-1356): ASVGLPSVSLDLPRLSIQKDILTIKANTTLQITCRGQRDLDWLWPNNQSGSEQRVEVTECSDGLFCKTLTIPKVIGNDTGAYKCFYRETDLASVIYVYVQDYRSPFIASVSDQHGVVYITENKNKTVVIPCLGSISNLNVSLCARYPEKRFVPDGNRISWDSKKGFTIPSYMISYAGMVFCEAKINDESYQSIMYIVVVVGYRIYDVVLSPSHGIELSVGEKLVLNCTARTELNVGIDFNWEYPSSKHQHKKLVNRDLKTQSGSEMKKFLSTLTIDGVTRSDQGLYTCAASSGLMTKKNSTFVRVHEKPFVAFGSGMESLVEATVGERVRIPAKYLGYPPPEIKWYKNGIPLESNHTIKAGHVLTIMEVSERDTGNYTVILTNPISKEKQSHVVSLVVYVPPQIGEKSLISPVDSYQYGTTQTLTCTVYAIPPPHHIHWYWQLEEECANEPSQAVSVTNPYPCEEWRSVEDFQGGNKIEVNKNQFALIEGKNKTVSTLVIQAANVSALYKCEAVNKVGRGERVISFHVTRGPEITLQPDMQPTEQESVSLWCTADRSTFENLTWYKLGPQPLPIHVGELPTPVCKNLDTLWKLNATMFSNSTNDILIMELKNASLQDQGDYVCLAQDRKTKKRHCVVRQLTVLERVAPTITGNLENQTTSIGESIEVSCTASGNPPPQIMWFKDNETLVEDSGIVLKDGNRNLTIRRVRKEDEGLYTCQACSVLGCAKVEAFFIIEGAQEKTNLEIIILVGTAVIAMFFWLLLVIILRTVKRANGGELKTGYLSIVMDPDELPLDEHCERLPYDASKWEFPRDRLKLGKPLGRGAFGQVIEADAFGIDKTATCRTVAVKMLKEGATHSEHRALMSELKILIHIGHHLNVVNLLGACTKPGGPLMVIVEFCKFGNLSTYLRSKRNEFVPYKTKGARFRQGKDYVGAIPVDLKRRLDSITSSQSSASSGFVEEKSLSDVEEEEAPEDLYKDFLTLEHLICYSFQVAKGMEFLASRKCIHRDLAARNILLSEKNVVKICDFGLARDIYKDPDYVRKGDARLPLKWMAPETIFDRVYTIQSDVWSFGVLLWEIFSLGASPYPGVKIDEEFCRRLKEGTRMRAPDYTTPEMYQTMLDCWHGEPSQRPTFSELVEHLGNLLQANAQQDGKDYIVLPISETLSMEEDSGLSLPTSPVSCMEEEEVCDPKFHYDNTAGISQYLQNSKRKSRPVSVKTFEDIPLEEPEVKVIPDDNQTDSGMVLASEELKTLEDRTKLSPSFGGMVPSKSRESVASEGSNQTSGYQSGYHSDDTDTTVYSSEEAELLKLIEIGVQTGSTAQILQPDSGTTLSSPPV

[7] = tested on: CLK kinases; assay: 320-kinase panel screen, radiometric protein kinase assay, CLK kinases; assay type: biochemical; conditions: 1 μM, 60 min incubation
[8] = tested on: AKT 1, 2, 3; assay: AKT radiometric protein kinase assay; assay type: biochemical; conditions: 1 μM, 60 min
[9] = tested on: ERK 1, 2; assay: ERK radiometric protein kinase assay; assay type: biochemical; conditions: 1 μM, 60 min
[10] = tested on: MOLM-13 cells; assay: Alamar Blue cytotoxicity, MOLM-13 cells; assay type: cell-based; conditions: Homo sapiens, MOLM-13, read-out: cytotoxic activity IC50, MOLM-13
[11] = tested on: HeLa, ACHN and NCI-H69 cell lines; assay: FMCA cytotoxicity, solid tumor cell lines; assay type: cell-based, human; conditions: 72 h
[12] = tested on: MV4-11 cells; assay: Apoptosis assay; assay type: cell-based, human; conditions: 10 μM, up to 48 h
[13] = tested on: MV4-11 cells; assay: Mouse hollow-fiber model, MV4-11; assay type: in vivo; conditions: NMRI male mice, 15 mg/kg s.c. twice daily, 6 days
[14] = tested on: primary AML cells; assay: Mouse hollow-fiber model, primary AML cells; assay type: in vivo; conditions: NMRI male mice, 15 mg/kg s.c. twice daily, 6 days
[15] = Pharmacokinetic studies in C57 black mice; assay type: in vivo, mouse
[16] = Plasma protein binding; assay type: in vitro ADME
[17] = target: FGFR2 (Homo sapiens, UniProt P21802); assay: biochemical
Chain of FGFR2 (P21802 22-821): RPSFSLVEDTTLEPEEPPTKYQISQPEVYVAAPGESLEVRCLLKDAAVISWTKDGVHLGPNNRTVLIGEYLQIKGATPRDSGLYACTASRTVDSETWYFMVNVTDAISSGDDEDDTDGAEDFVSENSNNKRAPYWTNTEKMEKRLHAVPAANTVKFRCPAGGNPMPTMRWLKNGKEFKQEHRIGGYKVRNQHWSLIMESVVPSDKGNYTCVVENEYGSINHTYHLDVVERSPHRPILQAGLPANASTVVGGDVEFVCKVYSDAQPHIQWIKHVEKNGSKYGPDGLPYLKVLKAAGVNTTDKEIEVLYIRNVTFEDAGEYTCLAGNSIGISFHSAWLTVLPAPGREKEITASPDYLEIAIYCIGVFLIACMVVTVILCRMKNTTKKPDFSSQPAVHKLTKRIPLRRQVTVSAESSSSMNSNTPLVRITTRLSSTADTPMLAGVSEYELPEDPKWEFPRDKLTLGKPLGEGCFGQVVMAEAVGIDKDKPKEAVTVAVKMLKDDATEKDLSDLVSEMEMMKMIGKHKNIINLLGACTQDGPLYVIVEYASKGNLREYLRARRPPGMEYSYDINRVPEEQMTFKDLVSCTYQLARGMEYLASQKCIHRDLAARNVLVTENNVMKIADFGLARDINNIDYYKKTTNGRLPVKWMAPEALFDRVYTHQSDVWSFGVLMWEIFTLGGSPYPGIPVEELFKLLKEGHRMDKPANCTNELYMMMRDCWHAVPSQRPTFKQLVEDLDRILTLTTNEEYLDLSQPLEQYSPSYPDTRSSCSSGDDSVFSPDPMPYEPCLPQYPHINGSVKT

[18] = tested on: MV4-11 cells; assay: Combination studies with cytarabine or daunorubicin

Q: Which “inhibition of RPS6K in kinase-panel screen” value [1] does the source give for `CC(C)(C)c1cc(NC(=O)Nc2ccc(-c3cn4c(n3)sc3cc(OCCN5CCOCC5)ccc34)cc2)no1` [AC220, reference compound] here?
A: did not inhibit

Q: What about the “cytotoxic efficacy in MV4-11” value ([2]; FMCA dose-response) of the same compound?
A: full efficacy

Q: What about the “cytotoxic response in primary AML samples” value ([3]; FMCA, 11 additional AML patient samples (UPN 14-24)) of the same compound?
A: varied considerably

Q: With `Nc1ncc(-c2ccncc2)nc1Nc1ccc2[nH]ccc2c1` [AKN-028, N-3-(1H-indol-5-yl)-5-pyridin-4-yl-pyrazine-2,3-diamine] as the compound, how does the IC50 [4] read?
A: 140 nM

Q: What about the “IC50 RPS6KA” value [5] of the same compound?
A: 220 nℳ nM

Q: And the IC50 [6]?
A: 520 nM

Q: What about the “remaining enzyme activity, CLK kinases” value [7] of the same compound?
A: Less than 20%

Q: And the “remaining enzyme activity, RPS6K” value ([1]; 60 min incubation)?
A: Less than 20%

Q: What about the “inhibition of AKT 1, 2, 3” value [8] of the same compound?
A: No direct inhibition

Q: And the “inhibition of ERK 1, 2” value [9]?
A: No direct inhibition

Q: And the IC50 ([2]; Homo sapiens, MV4-11, 72 h, read-out: cytotoxic activity IC50, MV4-11)?
A: < 50 nM

Q: And the IC50 [10]?
A: < 50 nM

Q: What about the “cytotoxic effect in solid tumor cell lines HeLa, ACHN and NCI-H69” value [11] of the same compound?
A: Almost no effect

Q: And the IC50 ([3]; Homo sapiens, read-out: mean IC50, primary AML samples, n=15 samples)?
A: 1000 nM

Q: What about the “apoptosis / caspase 3 activation in MV4-11” value [12] of the same compound?
A: induced apoptosis by activation of caspase 3

Q: And the “net growth in hollow fibers, MV4-11” value [13]?
A: reduced the tumor mass

Q: What about the “net growth in hollow fibers, primary AML sample UPN25” value [14] of the same compound?
A: no significant inhibition

Q: What about the “net growth in hollow fibers, primary AML sample UPN26” value [14] of the same compound?
A: inhibited net growth

Q: And the plasma target concentration ([15]; IC90 divided by fraction unbound)?
A: 1 to 3 µM

Q: And the “predicted exposure time above plasma target concentration” value ([15]; hollow-fiber experiment, twice daily, target 1–3 μM)?
A: 1 h

Q: What about the fraction unbound [16] of the same compound?
A: 0.035

Q: And the IC50 [17]?
A: 1200 nM

Q: What about the “drug interaction (mean combination index) with cytarabine” value ([18]; cytarabine simultaneously or 24 h before AKN-028, cytarabine:AKN-028 2.5:1) of the same compound?
A: synergy

Q: What about the “drug interaction (mean combination index) with daunorubicin” value ([18]; daunorubicin simultaneously or 24 h before AKN-028, daunorubicin:AKN-028 1:20) of the same compound?
A: synergy

Q: What about the “drug interaction (mean combination index) with cytarabine” value ([18]; pre-treated with AKN-028 24 h, followed by cytarabine) of the same compound?
A: antagonism

Q: And the “drug interaction (mean combination index) with daunorubicin” value ([18]; pre-treated with AKN-028 24 h, followed by daunorubicin)?
A: antagonism
